From patent US4567270A, “Hexahydroindolizinones useful for treating cardiac arrhythmia, thrombotic disorders in mammals” (G. D. Searle & Co., priority 1984, dated 1986)
Structures can show the parent of a compound that is named as a salt. Where two headings read alike, the source gives them in different places.

Experiments:
[1] = tested on: ADP-induced aggregation of blood platelets; experiment: Inhibition of ADP-induced platelet aggregation (optical platelet aggregometry in platelet-rich plasma); type: cell-based; conditions: rat platelet-rich plasma; one minute incubation, ADP usually 1-3 mcM
[2] = tested on: ventricular arrhythmia induced by coronary artery ligation; experiment: Inhibition of ventricular arrhythmia induced by coronary ligation (two-stage ligation of left coronary artery); type: in vivo, dog; conditions: for minimal effective dose: Canis lupus familiaris, iv, read-out: Minimum Effective Dose
Procedure: Arrhythmias induced in this manner are considered similar in nature to those resulting from myocardial infarction in humans. […] The antiarrhythmic and antiaggregatory activities of the compounds of this invention illustrated in the examples were tested by the following methods.
Ventricular arrhythmia was induced by a two-stage ligation of the anterior descending branch of the left coronary artery in each of two or more dogs. Compounds were administered intraveneously using an initial 5 mg/kg body weight dose, with additional doses injected at intervals to a maximum of 20 mg/kg. A compound was rated active if it produced at least a 25% reduction in ectopic beats for a period of at least ten minutes in half or more of the dogs. The average minimum effective dose for each compound was calculated.
Compounds which produced 75-100% reduction in the ventricular arrhythmia at the initial 5 mg/kg dose were further tested using 1 mg/kg doses injected as before at five minute intervals. As before, a compound was rated active if it produced at least a 25% reduction in ectopic beats for a period of at least ten minutes in half or more of the dogs. The average minimum effective dose for each compound was calculated.

cardiac arrhythmia = conditions: cited from earlier work
[3] = tested on: ventricular arrhythmia induced by coronary artery ligation; conditions: dog; cited from earlier work
[4] = cited from earlier work; for toxic / side effects: Goodman and Gilman
[5] = dog, i.v., coronary ligation, average minimum dose giving at least 25% reduction in ectopic beats for at least ten minutes in half or more of the dogs

SMILES | IC50 [1] | minimal effective dose [2, 5] | activity in man (cardiac arrhythmia) | activity of known antiarrhythmics under coronary ligation conditions [3] | toxic / side effects [4] | further results
CC(C)N(CCC1(c2ccccc2Cl)CC2CCCCN2C1=O)C(C)C (racemic) [Example 6, 2-[2-[bis(1-methylethyl)amino]ethyl]-2-(2-chlorophenyl)hexahydro-3(2H)-indolizinone, Racemate A] | 88 µM | 3 mg/kg | – | – | – | –
CC(C)N(CCC1(c2ccccc2Cl)CC2CCCCN2C1=O)C(C)C (racemic) [Example 7, 2-[2-[bis(1-methylethyl)-amino]ethyl]-2-(2-chlorophenyl)hexahydro-3(2H)-indolizinone, Racemate B] | – | – | – | – | – | Minimum Effective Dose ([2]; dog, i.v., coronary ligation, average minimum dose giving at least 25% reduction in ectopic beats for at least ten minutes in half or more of the dogs, listed as Ex. 7): 5.0 mpk
CC(C)N(CCC(C(N)=O)(c1ccccc1)c1ccccn1)C(C)C (stereo not drawn) [Disopyramide] | – | – | active in man | active under these conditions | anticholinergic effects | Human dose (i.v.) (cardiac arrhythmia; human, i.v., comment in Table 1): ca. 2 mpk; minimal effective dose [2]: 9.2 mg/kg; effective refractory period of the atrium ([4]; at therapeutic levels): lengthens the effective refractory period of the atrium; refractory period of the A-V node ([4]; at therapeutic levels): minimal effect on the refractory period of the A-V node; sinus node recovery time ([4]; at therapeutic levels): shortens the sinus node recovery time
CC(C)N(CCC1(c2ccccc2)CC2CCCCN2C1=O)C(C)C (stereo not drawn) [Example 3, 2-[2-[bis(1-methylethyl)amino]ethyl]-hexahydro-2-phenyl-3(2H)-indolizinone] | – | 5 mg/kg | – | – | – | –
CC(C)N(CCC1(c2ccc(-c3ccccc3)cc2)CC2CCCCN2C1=O)C(C)C (stereo not drawn) [Example 10, 2-[2-[bis(1-methylethyl)amino]ethyl]-2-(4-phenylphenyl)hexahydro-3(2H)-indolizinone] | 34 µM | 3 mg/kg | – | – | – | –
CC(C)N(CCC1(c2ccccc2)CC2CCCCN2C1=O)C(C)C (stereo not drawn) [Example 11, 2-[2-[bis(1-methylethyl)amino]ethyl]hexahydro-2-phenyl-3(2H)-indolizinone hydrochloride hydrate] | 81 µM | – | – | – | – | –
CCN(CC)CCNC(=O)c1ccc(N)cc1 [Procainamide] | – | – | active in man | active under these conditions | – | –
CC(C)NCC(O)COc1cccc2ccccc12 (stereo not drawn) [Propranolol] | – | – | – | – | may induce significant hypotension, left ventricular failure, or even cardiovascular collapse | –
C=C[C@H]1C[N@@]2CC[C@H]1C[C@@H]2[C@@H](O)c1ccnc2ccc(OC)cc12 [Quinidine] | – | – | active in man | active under these conditions | exhibits several toxic reactions, such as cinchonism | –
